Test results reported in PMC9920254 (Molecules, 2023).
Where “and” joins values, the source holds several entries; their conditions need not be identical. Equal entries are not always repeated. Where two headings read alike, the source gives them in different places.

Columns and labels:
[1] = tested on: CYPs; assay: in vitro; settings: rat, pH 7.4
[2] = tested on: IAV; parameters: method as in PMID 32520560; settings: mice, oral dosing; superior to oseltamivir; cited from earlier work
[3] = rat LMs
[4] = tested on: UGTs (mouse LMs); settings: mouse LMs (MLM)
[5] = mouse LMs
[6] = Pharmacokinetic profile of PND in rats with or without ibrutinib (UGTs inhibitor) pretreatment; format: in vivo, rat; settings: for Cmax / Tmax: 3.5 mg/kg; for MRT inf: n = 3, read-out: MRT0-∞
Experimental: Ibrutinib, a broad inhibitor of UGTs, was used to block the metabolism of PND via UGTs. PND and ibrutinib were formulated in PEG 300-water (70%: 30%, v/v) and DMSO-Cremophor EL-water (10%: 30%: 60%, v/v/v), respectively. Rats were pretreated through intraperitoneal (i.p.) injection of ibrutinib (100 mg/kg) or vehicle (three rats per group). After 0.5 h, PND (3.5 mg/kg) were administrated via gavage. Then blood samples were taken into heparinized tubes for separating plasma. Time points included before dosing, at 5, 20 and 45 min and 1.25, 2, 3, 4, 6, 8, 12, 24 and 48 h after dosing. Plasma was separated by centrifuging the blood samples at 3000 rpm for 10 min and then stored at −40 °C until analysis. The plasma samples were analyzed using the reported LC–MS/MS method as described in our previous study.
Figures and statistics were plotted and calculated using GraphPad Prism (version 8.4.3) and Microsoft Excel (version 2019). Metabolic pathways were illustrated with ChemBioDraw Ultra (version 13.0). Pharmacokinetic parameters were estimated using non-compartmental methods (WinNonlin version 2.0, Pharsight Co., Certara, NJ, USA). All pharmacokinetic parameters were given as the mean ± standard deviation. All statistical analyses were performed using SAS (version 9.4; SAS Institute Inc., Cary, NC, USA). A p value < 0.05 was considered statistically significant.

[7] = tested on: CYPs (mouse LMs); settings: mouse LMs (MLM)
[8] = parameters: method as in PMID 32520560; settings: cited from earlier work
[9] = rat bile, after 72 h of administration via gavage (3.5 mg/kg) and injection (0.35 mg/kg)
[10] = tested on: CYPs; assay: in vitro; settings: human, pH 7.4
[11] = tested on: UGTs (rat LMs); settings: rat LMs (RLM)
[12] = tested on: CYPs; assay: in vitro; settings: mouse, pH 7.4
[13] = Metabolite profiling of PND in rat bile, urine, feces and plasma by UHPLC–HRMS; format: in vivo; settings: feces
Experimental: Rats, three animals in each group, were randomly selected and treated with PND orally (3.5 mg/kg) or intravenously (0.35 mg/kg). Blood samples were collected into heparinized tubes by retro-orbital bleeding via capillary tubes under isoflurane anesthesia at 0.33, 3 and 8 h after oral administration and at 0.25, 4 and 8 h after intravenous injection. Plasma was separated by centrifuging the blood samples at 3000 rpm for 10 min. Rats were individually housed in metabolic cages (Tecniplast, Buguggiate, Italia) for collecting urine and feces samples. Additionally, the bile duct of rats under anesthesia with chloral hydrate (10% w/v) were cannulated with a S2-RBDC cannula (Skillsmodel, Beijing) for collecting bile. Urine and feces as well as bile samples were collected pre-dosing and at the following intervals postdosing: 0–2, 2–4, 4–6, 6–8, 8–10, 10–12 (0–12 for feces sample), 12–24, 24–36, 36–48 and 48–72 h. Bile and urine volume was recorded. Feces samples were freeze-dried, weighed, powered, added with water (9 mL/g) and homogenized. All samples were stored at −40 °C until analysis.
Identification analysis of metabolites in bio-samples was performed as described previously using a Dionex Ultimate 3000 UHPLC system combined with a Q-Exactive Focus Orbitrap mass spectrometer (Thermo Fischer Scientific, MA, USA) fitted with a CORTECS T3 column (2.1 × 150 mm, 2.7 μm; Waters, MA, USA). […]

[14] = tested on: CYPs (rat LMs); settings: rat LMs (RLM)
[15] = tested on: CYPs (human LMs); settings: human LMs (HLM)
[16] = human LMs
[17] = tested on: UGTs (human LMs); settings: human LMs (HLM)
[18] = PND i.g 3.5 mg/kg, ibrutinib i.p. 100 mg/kg versus control
[19] = rat, plasma, oral, PND i.g 3.5 mg/kg after i.p. Ibrutinib (100 mg/kg) pretreatment, Mean ± SD, n = 3
[20] = rat, plasma, po, PND i.g 3.5 mg/kg, Control, Mean ± SD, n = 3

CC(=O)c1cc(C)c(O)c(Cc2[nH]c3ccccc3c2Cc2c(O)c(C)cc(C(C)=O)c2O)c1O [PND, Penindolone]
Km [1]: 15.2 µM | Protection against IAV-induced death and weight loss [2]: protect mice against IAV-induced death and weight loss | PND metabolized in LMs in the presence of NADPH ([3]; NADPH, within 1 h, PND 2 µM): Approximately 96% | Prototype drug eliminated in the presence of UDPGA ([3]; UDPGA, PND 2 µM): more than 65% | Stability in LMs without co-factors ([3]; without NADPH or UDPGA): stable | Clint [4]: 0.198 µL/min | Km [4]: 31.6 µM | Vmax [4]: 6 nmol/(min×mg Protein) and 6.25 nmol/(min×mg Protein) | PND metabolized in LMs in the presence of NADPH ([5]; NADPH, within 1 h, PND 2 µM): ~89% | Prototype drug eliminated in the presence of UDPGA ([5]; UDPGA, PND 2 µM): more than 65% | Stability in LMs without co-factors ([5]; without NADPH or UDPGA): stable | CLz ([6]; PND i.g 3.5 mg/kg, Control, Mean ± SD, n = 3): 14.7 ± 3.67 mL/min/kg | Elevation of Cmax of PND after pretreatment with ibrutinib [6, 18]: 18.78% | Increase of AUC0–∞ of PND after combination with ibrutinib [6, 18]: 30.56% | Cmax ([6]; rat, plasma, oral, PND i.g 3.5 mg/kg after i.p. Ibrutinib (100 mg/kg) pretreatment, Mean ± SD, n = 3, read-out: Cmax-1): 272 ± 36.9 ng/mL | Tmax ([6]; rat, plasma, oral, PND i.g 3.5 mg/kg after i.p. Ibrutinib (100 mg/kg) pretreatment, Mean ± SD, n = 3, read-out: Tmax-1): 0.47 ± 0.24 h | AUC(0-inf) [6, 19]: 5450 ± 2690 ng·h/mL | Vd [6, 19]: 15.6 ± 6.42 L/kg | half-life [6, 19]: 15.8 ± 9.82 h | clearance ([6]; rat, plasma, oral, PND i.g 3.5 mg/kg after i.p. Ibrutinib (100 mg/kg) pretreatment, Mean ± SD, n = 3, read-out: CLz (converted)): 13.5 mL/min/kg | MRT inf ([6]; rat, plasma, oral, PND i.g 3.5 mg/kg after i.p. Ibrutinib (100 mg/kg) pretreatment, Mean ± SD): 23.9 ± 12.7 h | Cmax ([6]; rat, plasma, po, PND i.g 3.5 mg/kg, Control, Mean ± SD, n = 3, read-out: Cmax-1): 229 ± 128 ng/mL | Cmax ([6]; rat, plasma, po, PND i.g 3.5 mg/kg, Control, Mean ± SD, n = 3, read-out: Cmax-2): 197 ± 46.8 ng/mL | Tmax ([6]; rat, plasma, po, PND i.g 3.5 mg/kg, Control, Mean ± SD, n = 3, read-out: Tmax-1): 0.61 ± 0.24 h | Tmax ([6]; rat, plasma, po, PND i.g 3.5 mg/kg, Control, Mean ± SD, n = 3, read-out: Tmax-2): 6 h | AUC(0-inf) [6, 20]: 4180 ± 1190 ng·h/mL | half-life [6, 20]: 4.87 ± 0.3 h | MRT inf ([6]; rat, plasma, po, PND i.g 3.5 mg/kg, Control, Mean ± SD): 12.8 ± 0.22 h | Clint [7]: 0.069 µL/min | Vmax [7]: 1.11 nmol/(min×mg Protein) | Bioavailability [8]: low | Accumulation of PND in bile [9]: 2.68–3.35 % of dosing | Km [10]: 97.7 µM | Clint [11]: 0.030 µL/min | Km [11]: 46.7 µM | Vmax [11]: 1.38 nmol/(min×mg Protein) | Km [12]: 16.1 µM | Detection of PND (M0) in bio-samples [13]: detected in all bio-samples | Clint [14]: 0.073 µL/min | Vmax [14]: 1.11 nmol/(min×mg Protein) | Clint [15]: 0.013 µL/min | Vmax [15]: 1.28 nmol/(min×mg Protein) | PND diminished in LM system in the presence of NADPH ([16]; NADPH, within 60 min, PND 2 µM): Less than 16% | Prototype drug eliminated in the presence of UDPGA ([16]; UDPGA, PND 2 µM): more than 65% | Stability in LMs without co-factors ([16]; without NADPH or UDPGA): stable | Clint [17]: 0.089 µL/min | Km [17]: 23.4 µM | Vmax [17]: 2.08 nmol/(min×mg Protein)
